Measurements: PubChem BioAssay (NCI)
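A five-concentration, 48-hour dose response in 96-well plates underlies each endpoint, interpolated linearly between surrounding concentrations. TGI is the concentration that stops growth completely.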

Legend:
Test in all cases: NCI tumour cell line growth inhibition, 48 h
786-0 renal = test system: 786-0 renal
HCC-2998 colon = test system: HCC-2998 colon
KM12 colon = test system: KM12 colon
M14 melanoma = test system: M14 melanoma
MALME-3M melanoma = test system: MALME-3M melanoma
NCI-H226 lung = test system: NCI-H226 lung
NCI-H522 lung = test system: NCI-H522 lung
OVCAR-3 ovarian = test system: OVCAR-3 ovarian
OVCAR-8 ovarian = test system: OVCAR-8 ovarian
SK-MEL-28 melanoma = test system: SK-MEL-28 melanoma
SNB-19 CNS = test system: SNB-19 CNS
SW-620 colon = test system: SW-620 colon
UACC-257 melanoma = test system: UACC-257 melanoma
UACC-62 melanoma = test system: UACC-62 melanoma
OVCAR-5 ovarian = test system: OVCAR-5 ovarian

Row | SMILES | TGI (786-0 renal) | TGI (HCC-2998 colon) | TGI (KM12 colon) | TGI (M14 melanoma) | TGI (MALME-3M melanoma) | TGI (NCI-H226 lung) | TGI (NCI-H522 lung) | TGI (OVCAR-3 ovarian) | TGI (OVCAR-8 ovarian) | TGI (SK-MEL-28 melanoma) | TGI (SNB-19 CNS) | TGI (SW-620 colon) | TGI (UACC-257 melanoma) | TGI (UACC-62 melanoma) | TGI (OVCAR-5 ovarian)
1 | CC(=O)NC(CCCCN(Cc1ccccc1)C(=O)NCCCl)C(=O)NCc1ccccc1 (centres undefined) | > 100 µM | > 100 µM | > 100 µM | > 100 µM | > 100 µM | > 100 µM | > 100 µM | > 100 µM | > 100 µM | > 100 µM | > 100 µM | > 100 µM | > 100 µM | > 100 µM | –
2 | CC(C)C1C(=O)NC(CO)Cc2c[nH]c3c(C(c4c[nH]c5ccccc45)C(O)CO)ccc(c23)N1C (centres undefined) | > 100 µM | 18.5 µM | > 100 µM | > 100 µM | – | – | > 100 µM | > 100 µM | > 100 µM | > 100 µM | > 100 µM | > 100 µM | > 100 µM | > 100 µM | –
3 | CCOc1cc2ccc3c4cc(OC)c(OC)cc4cnc3c2cc1OCC | > 100 µM | > 100 µM | > 100 µM | > 100 µM | > 100 µM | – | > 100 µM | > 100 µM | > 100 µM | > 100 µM | > 100 µM | > 100 µM | > 100 µM | > 100 µM | > 100 µM
4 | N#CC(/C(=N\NC(=O)c1ccncc1)C(=O)Nc1ccc([N+](=O)[O-])cc1[N+](=O)[O-])c1nc(-c2ccc(Br)cc2)cs1 (centres undefined) | > 100 µM | > 100 µM | > 100 µM | > 100 µM | > 100 µM | – | – | > 100 µM | > 100 µM | > 100 µM | > 100 µM | > 100 µM | > 100 µM | > 100 µM | > 100 µM
5 | O=C(/C=C/c1ccc(O)c(O)c1)OC1C[C@@](O)(C(=O)O)C[C@@H](O)[C@H]1OC(=O)/C=C/c1ccc(O)c(O)c1 (some centres undefined) | > 100 µM | > 100 µM | > 100 µM | > 100 µM | > 100 µM | > 100 µM | > 100 µM | > 100 µM | > 100 µM | > 100 µM | – | > 100 µM | > 100 µM | > 100 µM | > 100 µM
6 | O=c1cc(-c2ccccc2)oc2cc(OCC(O)COc3ccc4c(=O)cc(-c5ccccc5)oc4c3)ccc12 | 52 µM | – | > 100 µM | > 100 µM | > 100 µM | – | > 100 µM | > 100 µM | > 100 µM | > 100 µM | 53.6 µM | > 100 µM | > 100 µM | > 100 µM | > 100 µM
7 | COc1ccc(/C=N/N=C(\N)NO)c(Cl)c1O | > 100 µM | 40.4 µM | > 100 µM | – | > 100 µM | 38.6 µM | 42.1 µM | > 100 µM | > 100 µM | > 100 µM | > 100 µM | > 100 µM | > 100 µM | > 100 µM | 6.86 µM
